These molecules were tested on human σ1 receptor and human μ-opioid receptor (assay: Human σ1 receptor and human μ-opioid receptor radioligand binding assays, reported on one dual scale). Conditions: combined class for both receptors; [3H](+)-pentazocine on transfected HEK-293 membranes (σ1), [3H]-DAMGO on transfected CHO-K1 membranes (μ).
Set-up: key to μ and σ1 dual (binding expressed as Ki): +: Both Ki-μ and Ki-σ1>500 nM; ++: One Ki<500 nM while the other Ki is >=500 nM; +++: Both Ki-μ and Ki-σ1<500 nM; ++++: Both Ki-μ and Ki-σ1<100 nM
Description: Human σ1 Receptor Radioligand Assay
To investigate binding properties of test compounds to human σ1 receptor, transfected HEK-293 membranes and [^3H](+)-pentazocine (Perkin Elmer, NET-1056), as the radioligand, were used. The assay was carried out with 7 μg of membrane suspension, 5 nM of [^3H](+)-pentazocine in either absence or presence of either buffer or 10 μM Haloperidol for total and non-specific binding, respectively. Binding buffer contained Tris-HCl 50 mM at pH 8. Plates were incubated at 37° C. for 120 minutes. After the incubation period, the reaction mix was then transferred to MultiScreen HTS, FC plates (Millipore), filtered and plates were washed 3 times with ice-cold 10 mM Tris-HCL (pH7.4). Filters were dried and counted at approximately 40% efficiency in a MicroBeta scintillation counter (Perkin-Elmer) using EcoScint liquid scintillation cocktail
Human μ-Opioid Receptor Radioligand Assay
To investigate binding properties of test compounds to human μ-opioid receptor, transfected CHO-K1 cell membranes and [^3H]-DAMGO (Perkin Elmer, ES-542-C), as the radioligand, were used. The assay was carried out with 20 μg of membrane suspension, 1 nM of [^3H]-DAMGO in either absence or presence of either buffer or 10 μM Naloxone for total and non-specific binding, respectively. Binding buffer contained Tris-HCl 50 mM, MgCl2 5 mM at pH 7.4. Plates were incubated at 27° C. for 60 minutes. After the incubation period, the reaction mix was then transferred to MultiScreen HTS, FC plates (Millipore), filtered and plates were washed 3 times with ice-cold 10 mM Tris-HCL (pH 7.4). Filters were dried and counted at approximately 40% efficiency in a MicroBeta scintillation counter (Perkin-Elmer) using EcoScint liquid scintillation cocktail.

Compound | μ and σ1 dual (binding expressed as Ki)
CCN1CC2(CCN(Cc3ccccc3)CC2)c2ccccc2C1=O [Example 3, 1′-Benzyl-2-ethyl-2,3-dihydro-1H-spiro[isoquinoline-4,4′-piperidin]-1-one] | ++
O=C1NCC2(CCN(Cc3ccccc3)CC2)c2ccccc21 [Example 1, 1′-Benzyl-2,3-dihydro-1H-spiro[isoquinoline-4,4′-piperidin]-1-one] | ++
O=C1c2ccccc2C2(CCN(CCc3ccccc3)CC2)CN1CCO [Example 11, 2-(2-Hydroxyethyl)-1′-phenethyl-2,3-dihydro-1H-spiro[isoquinoline-4,4′-piperidin]-1-one] | ++
CC(=O)N1Cc2ccccc2C2(CCN(CCc3ccccc3)CC2)C1 [Example 10, 1-(1′-Phenethyl-1H-spiro[isoquinoline-4,4′-piperidine]-2(3H)-yl)ethanone] | ++
O=C1c2ccccc2C2(CCN(Cc3ccccc3)CC2)CN1CCO [Example 7, 1′-Benzyl-2-(2-hydroxyethyl)-2,3-dihydro-1H-spiro[isoquinoline-4,4′-piperidin]-1-one] | ++
CN1CC2(CCN(Cc3ccccc3)CC2)c2ccccc2C1=O [Example 2, 1′-Benzyl-2-methyl-2,3-dihydro-1H-spiro[isoquinoline-4,4′-piperidin]-1-one] | ++

Same assay, conditions: combined class for both receptors; [3H](+)-pentazocine on transfected HEK-293 membranes (σ1), [3H]-DAMGO on transfected CHO-K1 membranes (μ); read-out: μ and σ1 dual (binding expressed as Ki)

Compound | Ki [nM]
O=C1NCC2(CCN(CCc3ccccc3)CC2)c2ccccc21 [Example 4, 1′-Phenethyl-2,3-dihydro-1H-spiro[isoquinoline-4,4′-piperidin]-1-one] | < 500
c1ccc(CCN2CCC3(CC2)CNCc2ccccc23)cc1 [Example 8, 1′-Phenethyl-2,3-dihydro-1H-spiro[isoquinoline-4,4′-piperidine]] | < 500
CN1CC2(CCN(CCc3ccccc3)CC2)c2ccccc2C1=O [Example 5, 2-Methyl-1′-phenethyl-2,3-dihydro-1H-spiro[isoquinoline-4,4′-piperidin]-1-one] | < 500
CCN1CC2(CCN(CCc3ccccc3)CC2)c2ccccc2C1=O [Example 6, 2-ethyl-1′-phenethyl-2,3-dihydro-1H-spiro[isoquinoline-4,4′-piperidin]-1-one] | < 500
CN1Cc2ccccc2C2(CCN(CCc3ccccc3)CC2)C1 [Example 9, 2-Methyl-1′-phenethyl-2,3-dihydro-1H-spiro[isoquinoline-4,4′-piperidine]] | < 500
